Test results taken from the METLIN SMRT retention time set (Domingo-Almenara et al. 2019).

Assay: gradient 5% acetonitrile 3 min, to 50% in 2 min, to 85% in 15 min, held 3 min, 100 µL/min
Details: column: Zorbax Extend-C18 2.1 x 50 mm; eluents: water / acetonitrile, 0.1% formic acid
Method in brief: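 Each retention time is based on an adduct peak selected computationally and verified by manual inspection. Measurements used HPLC–quadrupole time-of-flight mass spectrometry in positive and negative ionization mode on mixtures of ~100 pure standards. Chromatography ran on a Zorbax Extend-C18 column (2.1 × 50 mm, 1.8 μm) at 100 μL/min with water and acetonitrile, each containing 0.1% formic acid, and dead and dwell volumes of 40 μL and 900 μL.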

## O=C(Cn1cc(S(=O)(=O)Cc2cccc(Cl)c2)c2ccccc21)N1CCOCC1
  RP-LC retention time: 774 s

## O=c1n(Cc2ccc(Cl)cc2)nc2ccc(S(=O)(=O)N3CCCC3)cn12
  RP-LC retention time: 906 s

## Cc1cc(=O)n(CC(=O)N2CCN(c3ccc(F)cc3)CC2)c(-c2ccc(F)cc2)n1
  RP-LC retention time: 1010 s

## CCn1cc(S(=O)(=O)Nc2cc(F)ccc2C)c2cccnc21
  RP-LC retention time: 869 s

## Cc1ccccc1CC(=O)N1CCC(n2c(=O)n(C)c3cncnc32)C1 (centres undefined)
  RP-LC retention time: 652 s

## CCOC(=O)C1=C(CN2CCc3ccccc3C2)NC(=O)NC1c1cccs1 (centres undefined)
  RP-LC retention time: 655 s

## N#Cc1cnc2ccc(F)cc2c1N1CCC(C(=O)Nc2ccc(F)cc2)CC1
  RP-LC retention time: 885 s

## CC1CCCN(C(=O)c2cn(-c3cc(-c4nc(C(C)C)no4)ccn3)cn2)C1 (centres undefined)
  RP-LC retention time: 955 s

## CCOc1ccc(C2C(=O)N(C3CCCCC3)CC(=O)N2Cc2ccco2)cc1OC (centres undefined)
  RP-LC retention time: 879 s

## COc1cccc(C(=O)N2CCc3nc(CNC(=O)C4CCC4)n(C)c3C2)c1
  RP-LC retention time: 555 s

## COc1ccc2c(CCNC(=O)C(C)C)c[nH]c2c1
  RP-LC retention time: 706 s

## O=C(N[C@H]1C[C@@H]2C[C@H]1CN2C(=O)Cc1ccc(OC(F)(F)F)cc1)c1ccccc1
  RP-LC retention time: 836 s

## O=C(Cn1cccc1-c1nnc(-c2ccccc2)o1)Nc1ccc(Cl)cc1
  RP-LC retention time: 1030 s

## O=C(c1ccc2cc[nH]c2c1)N1CCN(c2cc(-c3cccs3)[nH]n2)CC1
  RP-LC retention time: 747 s

## Cn1nc(-c2nc(C3CC3)no2)c2c1CCN(S(=O)(=O)c1cccs1)C2
  RP-LC retention time: 861 s

## CN1CCN(S(=O)(=O)c2ccc(C3CCCCC3)cc2)CC1
  RP-LC retention time: 616 s

## O=C(CSc1ncccn1)N1CCC(Cc2ccccc2)CC1
  RP-LC retention time: 820 s

## O=C(CSc1nc(-c2ccccc2)c(NC(=O)c2cccs2)s1)NC1CC1
  RP-LC retention time: 782 s

## Cc1cc(C)c2c(-n3cccc3)nn(CC(=O)NCCN(C)C)c2n1
  RP-LC retention time: 630 s

## COc1ccc(-c2c(C(=O)NCc3cccnc3)nn3c(C)cc(C)nc23)cc1S(=O)(=O)N1CCCC1
  RP-LC retention time: 638 s

## CCCC(=O)N1CCN(c2ccc(=O)n(-c3ccc(Cl)cc3)n2)CC1
  RP-LC retention time: 778 s

## Cc1cc(Cl)ccc1N1C(=O)CN(S(C)(=O)=O)CC1(C)C(=O)NC1CCCCCCC1 (centres undefined)
  RP-LC retention time: 1010 s

## O=C(c1cccc2[nH]ccc12)N1CC(Oc2cccc(-c3nc(-c4ccccc4)no3)c2)C1
  RP-LC retention time: 1090 s

## COc1cc(F)ccc1-c1ccnc2ncnn12
  RP-LC retention time: 681 s

## COc1ccc(C)cc1NC(=O)N1CCC2(CC1)NC(=O)c1ccc(F)cc1N2C
  RP-LC retention time: 777 s

## COc1ccccc1N1CCN(CCN2C(=O)N=C3C(=Nc4ccccc43)C2=O)CC1
  RP-LC retention time: 705 s

## Cc1ccc2oc(=O)n(Cc3noc(C(=O)NCC(C)c4ccccc4)n3)c2c1 (centres undefined)
  RP-LC retention time: 992 s

## CCN(CC)S(=O)(=O)c1cc(-c2nc(C(C)C)cs2)sc1C
  RP-LC retention time: 1270 s

## CCOCC(=O)N1CCCn2ccnc2C1C1CCCC1 (centres undefined)
  RP-LC retention time: 587 s

## Cn1cc(-c2nc(C(=O)Nc3ccc(Cl)cc3F)cs2)c2cccnc21
  RP-LC retention time: 1260 s

## CN1CCN(CCNC(=O)C2CCc3sc(C(=O)N4CCCC4)cc3C2)CC1 (centres undefined)
  RP-LC retention time: 569 s

## Cc1ccc(-c2nc3ncccn3c2Nc2cc(C)ccc2C)cc1
  RP-LC retention time: 825 s

## COC(=O)c1ccc2c(=O)n(-c3cc(OC)cc(OC)c3)c(N3CCN(C(C)C)CC3)nc2c1
  RP-LC retention time: 668 s

## O=C(NCc1csc(C2CCCN(C(=O)c3ccccc3)C2)n1)C1CCC1 (centres undefined)
  RP-LC retention time: 712 s

## COc1cc2nc(C(=O)N3CCCCC3)cc(Nc3cc(C)cc(C)c3)c2cc1OC
  RP-LC retention time: 760 s

## CC1=NS(=O)(=O)N(C)C=C1C(=O)OCc1nc(-c2ccccc2C)no1
  RP-LC retention time: 1000 s

## C=CCN1CCN(c2ccc3nnc(CCc4nc(-c5ccc(OC)cc5)no4)n3n2)CC1
  RP-LC retention time: 603 s

## Cc1ccn2cc(-c3ccc(NC(=O)c4ccccc4I)cc3)nc2n1
  RP-LC retention time: 656 s

## CCc1ccc(NC(=O)NCCc2cn(CC(C)C)c3ncccc23)cc1
  RP-LC retention time: 919 s

## Cc1nnc(-c2nnc(NCc3ccccc3)c3ccccc23)o1
  RP-LC retention time: 776 s

## O=C1NC2C(=CC(O)C(O)C2O)c2cc3c(cc21)OCO3 (centres undefined)
  RP-LC retention time: 568 s

## COCCOCc1nc(C2CCCN2S(=O)(=O)c2cccc3nsnc23)no1 (centres undefined)
  RP-LC retention time: 759 s

## CSc1ccccc1NC(=O)c1cn2c(n1)CCCC2
  RP-LC retention time: 638 s

## Cc1cc(C)c(C#N)c(SCC(=O)Nc2nccs2)n1
  RP-LC retention time: 750 s

## CC(C)c1nnc(-c2ccc(S(=O)(=O)N3CCOCC3)o2)o1
  RP-LC retention time: 754 s

## CCN1c2ccc(C)cc2C(=O)NC12CCN(C(=O)c1cccc(F)c1)CC2
  RP-LC retention time: 835 s

## COC(=O)Cn1c(C)cc(=O)n2nc(-c3cccc(C)c3)nc12
  RP-LC retention time: 784 s

## COC(=O)C(C)NC(=O)NCc1cccn1Cc1ccc(F)cc1 (centres undefined)
  RP-LC retention time: 814 s

## COc1cc(NS(=O)(=O)c2c(C)sc(C)c2-c2cc(C(F)(F)F)on2)cc(OC)c1
  RP-LC retention time: 1140 s

## CCCS(=O)(=O)c1nc2ccc(NS(=O)(=O)c3ccc(F)cc3F)cc2s1
  RP-LC retention time: 934 s

## C=C1/C(=C/C=C2/CCC[C@]3(C)[C@@H]([C@H](C)CCCC(C)C)CC[C@@H]23)C[C@@H](O)C[C@@H]1O
  RP-LC retention time: 1220 s

## O=C(NCc1ccc(F)cc1)C1CCN(S(=O)(=O)c2ccc(-c3noc(C4CC4)n3)cc2)CC1
  RP-LC retention time: 1020 s

## CCCCC(=O)N1c2nc(-c3ccc(F)cc3)nn2C2(CCCCC2)[C@@H]2CCCC[C@@H]21
  RP-LC retention time: 1210 s

## O=C(c1ccc(CS(=O)c2ccccc2)o1)N1CCN(c2ccccn2)CC1 (centres undefined)
  RP-LC retention time: 560 s

## COc1cccc(S(=O)(=O)N2CCC(OCCOCc3ccccc3)CC2)c1
  RP-LC retention time: 678 s

## O=C(Nc1ccccc1)C1CCCN(c2nnc3ccc(Cl)cn23)C1 (centres undefined)
  RP-LC retention time: 753 s

## COCC(C)(O)CNC(=O)Cc1cccc(C)c1 (centres undefined)
  RP-LC retention time: 621 s

## COCCCNC(=O)c1c(OCC(C)C)cc(=O)n2c1CCCCC2
  RP-LC retention time: 638 s

## O=C(CCc1c(-c2cccc(Cl)c2)nc2ccccn12)NCc1ccco1
  RP-LC retention time: 637 s

## CC1CCN(c2ccc(-c3noc(CN(C)C4CCCCC4)n3)cn2)CC1
  RP-LC retention time: 720 s

## COCCN(Cc1ccc(Cl)cc1)Cc1cc(=O)c2cccc(F)c2[nH]1
  RP-LC retention time: 983 s

## COc1cccc(CN2N=C(C(=O)N3CCCC3)S(=O)(=O)c3ccccc32)c1
  RP-LC retention time: 843 s

## CCOC(=O)c1csc(NC(=O)Cn2cnc(C)cc2=O)n1
  RP-LC retention time: 598 s

## CCn1cc(-c2ccc(F)cc2)cc1C(=O)N1CCC2(CC1)OCCO2
  RP-LC retention time: 963 s

## COc1ccccc1CC(=O)Nc1ccc(-c2nc(Cn3nc(C)cc3C)c(C)o2)cc1
  RP-LC retention time: 924 s

## O=C(Nc1ccc2c(c1)OCO2)N(Cc1ccsc1)CC(F)(F)F
  RP-LC retention time: 858 s

## CC(C)n1nc(CNC(=O)c2ccsc2)c2ccccc21
  RP-LC retention time: 800 s

## COCCCNC(=O)C1CCN(c2ccc(Sc3ccc(C(C)C)cc3)nn2)CC1
  RP-LC retention time: 853 s

## COCCN1C(=O)CCc2cc(NS(=O)(=O)c3ccc(C)cc3C)ccc21
  RP-LC retention time: 816 s

## Cn1ccc2c(cc(C(=O)NCc3ccc(C(F)(F)F)cc3)n2C)c1=O
  RP-LC retention time: 754 s

## CCN(CC)CCNC(=O)C(C)n1c(=O)c(C(F)(F)F)nc2ccccc21 (centres undefined)
  RP-LC retention time: 669 s

## CCn1c(C)c(C(=O)CN(CC2CCCO2)C(=O)c2cccc(F)c2)c(C)c1C(=O)OC (centres undefined)
  RP-LC retention time: 896 s

## COc1cc(NC(=O)Cc2csc3nc(-c4ccc(C)c(C)c4)cn23)cc(OC)c1
  RP-LC retention time: 772 s

## COc1ccc(OC)c2sc(N3CCN(S(=O)(=O)c4cccs4)CC3)nc12
  RP-LC retention time: 896 s

## CCCn1c(CCNC(=O)c2c(F)cccc2F)nc2cccnc21
  RP-LC retention time: 694 s

## Cc1ccc(Sc2cc3c(cc2NC(=O)c2ccco2)n(C)c(=O)n3C)cc1
  RP-LC retention time: 988 s

## O=C(NCCn1nc(-c2cccs2)ccc1=O)c1ccc2ncsc2c1
  RP-LC retention time: 629 s

## Cc1ccc(S(=O)(=O)N2C[C@H](c3nc(-c4cccnc4)no3)[C@@H](C)C2)cc1
  RP-LC retention time: 939 s

## Cn1cc(-c2cc3n(n2)CCC(=O)N3CC(=O)NCCc2c[nH]c3ccccc23)c2ccccc21
  RP-LC retention time: 825 s

## O=C(NC1(c2nc(-c3ccccc3)no2)CCCCC1)c1ccc2c(c1)OCO2
  RP-LC retention time: 1120 s

## COc1cc(-c2c(NC(=O)c3ccco3)sc3ccccc3c2=O)cc(OC)c1OC
  RP-LC retention time: 828 s

## O=C(Nc1ccc2c(c1)OCCO2)C1CCN(C(=O)C2Sc3ccccc3NC2=O)CC1 (centres undefined)
  RP-LC retention time: 730 s

## O=c1c2cc(-c3cccs3)nn2cnn1Cc1nc(-c2ccc3c(c2)OCO3)no1
  RP-LC retention time: 1020 s

## CCCC(Nc1nc(C(=O)OCC)nc2ccccc12)c1cccs1 (centres undefined)
  RP-LC retention time: 933 s

## COC(=O)c1cc2c(cn1)[nH]c1ccccc12
  RP-LC retention time: 704 s

## COc1ccc2c(c1)c(CN1CC[C@H](CO)[C@H](N(C)C)C1)cn2C(C)C
  RP-LC retention time: 591 s

## CCc1cccc(NC(=O)Nc2ccc3nnc(C)n3c2)c1
  RP-LC retention time: 730 s

## CCCn1cc(C(=O)Nc2ccc3c(c2)OCCO3)c(=O)c2ccc(C)nc21
  RP-LC retention time: 1070 s

## Cc1ccc(Cl)cc1NC(=O)Cn1cnc2c(sc3nc(-c4ccccc4)ccc32)c1=O
  RP-LC retention time: 1070 s
